# According to publication PMC10080691, “Enzyme-Responsive Double-Locked Photodynamic Molecular Beacon for Targeted Photodynamic Anticancer Therapy” (Journal of the American Chemical Society, 2023):
# Assays:
# [1] = test system: A549 cells; test: Intracellular ROS generation (H2DCFDA); format: cell-based, human; details: 2 μM 1 h + 6 h, light λ > 610 nm, 23 mW cm-2, 14 J cm-2
# Procedure: The enzyme-responsive intracellular ROS generation of 1 was then examined in A549 and HeLa cells using 2′,7′-dichlorodihydrofluorescein diacetate (H2DCFDA) as the ROS fluorescent probe. Once H2DCFDA is internalized, it will be deacetylated by the intracellular esterase, followed by oxidation by the intracellular ROS, leading to the formation of the highly fluorescent 2′,7′-dichlorofluorescein (DCF).[79] The cells were first pretreated with SB-3CT (10 μM) and/or CA-074 Me (25 μM) or simply the neat medium for 2 h, followed by incubation with 1 (2 μM) for a further 1 h. As a negative control, the cells were simply incubated with 14 (2 μM) for 1 h. After being rinsed with PBS, the cells were incubated in the medium for a further 6 h. Finally, the cells were incubated with H2DCFDA (10 μM) for 30 min, followed by dark or light (λ > 610 nm, 23 mW cm^–2, 14 J cm^–2) treatment. […] It can be seen that for the MMP-2-positive A549 cells, the fluorescence due to DCF was in the following order: 1 without pretreatment of the cells with the two inhibitors > 1 with pretreatment of the cells with either one of the two inhibitors > 1 with pretreatment of the cells with both inhibitors ≈ 14. […] This trend, which reflects the extent of recovery of ROS generation, was in accord with that of the fluorescence recovery inside the cells (Figure 5c,d). For the MMP-2-negative HeLa cells, the intracellular fluorescence remained very weak even for 1 without pretreatment of the cells with the two inhibitors because of the intrinsically low MMP levels in the cells. […]
# or ER-Tracker Green (Thermo Fisher Scientific Inc., E34251) (1 μM for 15 min) in a serum-free medium at 37 °C. […] All the trackers were excited at 488 nm and their fluorescence was monitored at 500−570 nm, while the DSBDP moiety was excited at 638 nm and its fluorescence was monitored at 650−750nm. The images were digitized and analyzed using a Leica Application Suite X software. […]
# at 500−550 nm. The images were digitized and analyzed using a Leica Application Suite X […]
# [2] = test system: A549 tumor-bearing nude mice; test: In vivo PDT; design: species or system Balb/c nude mice; details: for H&E staining of major organs, Day 14 / H&E staining of tumor, Day 14 / change in body weight over 14 days: intratumoral 20 nmol + laser 680 nm, 180 J cm-2; for change in body weight over 14 days / tumor size over 14 days: n = 4; for tumor size over 14 days: intratumoral 20 nmol, laser 680 nm, 0.3 W cm-2, 10 min (180 J cm-2) at 6 h post-injection
# Procedure: To further examine the in vivo PDT efficacy of 1, A549 tumor-bearing nude mice were first intratumorally injected with 1 or the non-cleavable control 14 (20 nmol) in 20 μL of distilled water containing 7.5% dimethyl sulfoxide (DMSO) and 0.5% Tween 80 (v/v). After 6 h, when the difference in tumoral fluorescence intensity was the largest between the two conjugates (Figure 7b), the tumor was irradiated with a diode laser at 680 nm (0.3 W cm^–2) for 10 min. As another negative control, another group of mice were injected with PBS only without the laser treatment. The tumor size of all mice was monitored continuously for 14 days after the different treatments.
# The body weight of the mice was also monitored during the course of these treatments (Figure 7e). […] In addition, the PDT effect on the tumor and major organs was further investigated by hematoxylin and eosin (H&E) staining.
# A549 tumor-bearing nude mice were prepared as described above. The length and width of the tumor were measured using a micrometer digital caliper (SCITOP Systems). The tumor volume (mm3) was calculated using the formula: tumor volume = (length × width2)/2. Once the tumors had grown to a size of 80 –100 mm3, 1 or 14 (20 nmol) dissolved in 20 μL of distilled water containing 7.5% DMSO and 0.5% Tween 80 (v/v) was injected to the tumor -bearing mice through intratu moral injection. At 6 h post-injection, the tumor was illuminated with a diode […]
# The tumor size o f the nude mice was monitored periodically for the next 14 days. The tumor volumes were also compared with a PBS control group of mice without the light treatment.
# Four mice were used for each group. On Day 14 after the PDT treatment, the mice were sacrificed, and the tumor and major organs were harvested. The tissues were fixed with 4% […]
# and embedded in paraffin. […]
smiles,measurement,setting,value
CCN(CC)c1ccc2nc3ccc(/N=N/c4ccc(N(C)CCCNC(=O)OC[C@@H]5[C@@H]6CCc7nnn(CC(=O)NCCCC[C@@H]8NC(=O)CNC(=O)[C@H](CCCCN)NC(=O)CNC(=O)CNC(=O)CNC(=O)CNC(=O)CNC(=O)[C@H](CCCCN)NC(=O)[C@@H](N)CSCc9cc(COc%10ccc(C%11=C%12C(C)=C(I)C(/C=C/c%13ccc(OCCOCCOCCOC)cc%13)=[N+]%12[B-](F)(F)n%12c(/C=C/c%13ccc(OCCOCCOCCOC)cc%13)c(I)c(C)c%12%11)cc%10)cc(c9)CSC[C@@H](C(N)=O)NC(=O)[C@H](CCCCN)NC(=O)[C@H](CCCCN)NC(=O)CNC(=O)CNC(=O)CNC(=O)CNC(=O)[C@H](CCCCN)NC(=O)CNC8=O)c7CC[C@@H]65)cc4)cc3[n+](-c3ccccc3)c2c1 [compound 14],intracellular ROS generation (DCF fluorescence),[1]; no inhibitor pretreatment,could hardly be observed
same,"H&E staining of major organs, Day 14",[2],no apparent damage
same,"H&E staining of tumor, Day 14",[2],no apparent damage
same,change in body weight over 14 days,[2],negligible change
same,tumor size over 14 days,[2],grew continuously
CCN(CC)c1ccc2nc3ccc(/N=N/c4ccc(N(C)CCCNC(=O)OC[C@@H]5[C@@H]6CCc7nnn(CC(=O)NCCCC[C@@H]8NC(=O)CNC(=O)[C@H](CCCCN)NC(=O)[C@H](CCCNC(=N)N)NC(=O)[C@H](C(C)C)NC(=O)CNC(=O)[C@H](CC(C)C)NC(=O)[C@@H]9CCCN9C(=O)[C@H](CCCCN)NC(=O)[C@@H](N)CSCc9cc(COc%10ccc(C%11=C%12C(C)=C(I)C(/C=C/c%13ccc(OCCOCCOCCOC)cc%13)=[N+]%12[B-](F)(F)n%12c(/C=C/c%13ccc(OCCOCCOCCOC)cc%13)c(I)c(C)c%12%11)cc%10)cc(c9)CSC[C@@H](C(N)=O)NC(=O)[C@H](CCCCN)NC(=O)[C@H](CCCCN)NC(=O)CNC(=O)[C@H](CC(C)C)NC(=O)[C@H](Cc9ccccc9)NC(=O)CNC(=O)[C@H](CCCCN)NC(=O)CNC8=O)c7CC[C@@H]65)cc4)cc3[n+](-c3ccccc3)c2c1 [compound 1],intracellular ROS generation (DCF fluorescence),[1]; pretreatment with both SB-3CT (10 μM) and CA-074 Me (25 μM) 2 h,could hardly be observed
same,"H&E staining of major organs, Day 14",[2],no apparent damage
same,"H&E staining of tumor, Day 14",[2],significant cellular damage and necrosis
same,change in body weight over 14 days,[2],negligible change
same,tumor size over 14 days,[2],greatly reduced
